Data taken from ChEMBL document CHEMBL3808287, “AXL Inhibitors in Cancer: A Medicinal Chemistry Perspective” (J Med Chem, 2016).
Each block holds one compound with its values, some of them ahead of it.

How the values were obtained:
[1] = biological target: T1, Tyrosine-protein kinase receptor UFO (Homo sapiens, UniProt P30530); assay: Inhibition of AXL (unknown origin) by cell based assay
T1 sequence (P30530 whole entry): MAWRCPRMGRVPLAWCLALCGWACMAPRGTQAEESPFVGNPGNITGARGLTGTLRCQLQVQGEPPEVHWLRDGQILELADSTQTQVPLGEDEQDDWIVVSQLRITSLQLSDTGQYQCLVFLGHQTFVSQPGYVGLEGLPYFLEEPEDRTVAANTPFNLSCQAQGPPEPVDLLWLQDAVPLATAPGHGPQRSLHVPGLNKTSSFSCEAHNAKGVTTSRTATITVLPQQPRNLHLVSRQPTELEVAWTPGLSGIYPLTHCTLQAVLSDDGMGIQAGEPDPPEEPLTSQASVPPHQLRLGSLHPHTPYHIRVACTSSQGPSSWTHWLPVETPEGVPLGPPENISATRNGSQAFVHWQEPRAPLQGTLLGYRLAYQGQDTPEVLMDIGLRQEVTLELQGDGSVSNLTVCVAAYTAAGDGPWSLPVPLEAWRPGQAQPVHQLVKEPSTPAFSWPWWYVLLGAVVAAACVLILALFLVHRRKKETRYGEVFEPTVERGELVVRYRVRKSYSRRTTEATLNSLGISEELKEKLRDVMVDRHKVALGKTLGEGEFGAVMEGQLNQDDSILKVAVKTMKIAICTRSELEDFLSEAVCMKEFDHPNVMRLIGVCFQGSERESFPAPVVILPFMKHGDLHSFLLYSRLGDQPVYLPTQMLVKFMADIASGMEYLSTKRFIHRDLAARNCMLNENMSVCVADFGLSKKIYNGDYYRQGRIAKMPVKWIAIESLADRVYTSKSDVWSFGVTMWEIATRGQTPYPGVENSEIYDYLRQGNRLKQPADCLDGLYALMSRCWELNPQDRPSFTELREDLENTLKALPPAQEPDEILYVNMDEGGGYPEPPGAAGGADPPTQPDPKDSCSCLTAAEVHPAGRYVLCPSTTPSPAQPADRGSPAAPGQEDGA

[2] = biological target: T1, Tyrosine-protein kinase receptor UFO; assay: Inhibition of AXL (unknown origin)
[3] = biological target: T1, Tyrosine-protein kinase receptor UFO; assay: Inhibition of human recombinant AXL expressed in Escherichia coli BL21 infected with T7 phage by qPCR method
[4] = biological target: Hepatocyte growth factor receptor (Homo sapiens, UniProt P08581); assay: Inhibition of human recombinant MET expressed in Escherichia coli BL21 infected with T7 phage by qPCR method
[5] = biological target: T1, Tyrosine-protein kinase receptor UFO; assay: Inhibition of AXL in human GIST cells; format: cell-based
[6] = biological target: Tyrosine-protein kinase ABL1 (Homo sapiens, UniProt P00519); assay: Inhibition of human recombinant ABL by fluorescence polarization assay
[7] = biological target: T2, Tyrosine-protein kinase receptor TYRO3 (Homo sapiens, UniProt Q06418); assay: Inhibition of human recombinant TYRO3 by fluorescence polarization assay
T2 sequence (Q06418 whole entry): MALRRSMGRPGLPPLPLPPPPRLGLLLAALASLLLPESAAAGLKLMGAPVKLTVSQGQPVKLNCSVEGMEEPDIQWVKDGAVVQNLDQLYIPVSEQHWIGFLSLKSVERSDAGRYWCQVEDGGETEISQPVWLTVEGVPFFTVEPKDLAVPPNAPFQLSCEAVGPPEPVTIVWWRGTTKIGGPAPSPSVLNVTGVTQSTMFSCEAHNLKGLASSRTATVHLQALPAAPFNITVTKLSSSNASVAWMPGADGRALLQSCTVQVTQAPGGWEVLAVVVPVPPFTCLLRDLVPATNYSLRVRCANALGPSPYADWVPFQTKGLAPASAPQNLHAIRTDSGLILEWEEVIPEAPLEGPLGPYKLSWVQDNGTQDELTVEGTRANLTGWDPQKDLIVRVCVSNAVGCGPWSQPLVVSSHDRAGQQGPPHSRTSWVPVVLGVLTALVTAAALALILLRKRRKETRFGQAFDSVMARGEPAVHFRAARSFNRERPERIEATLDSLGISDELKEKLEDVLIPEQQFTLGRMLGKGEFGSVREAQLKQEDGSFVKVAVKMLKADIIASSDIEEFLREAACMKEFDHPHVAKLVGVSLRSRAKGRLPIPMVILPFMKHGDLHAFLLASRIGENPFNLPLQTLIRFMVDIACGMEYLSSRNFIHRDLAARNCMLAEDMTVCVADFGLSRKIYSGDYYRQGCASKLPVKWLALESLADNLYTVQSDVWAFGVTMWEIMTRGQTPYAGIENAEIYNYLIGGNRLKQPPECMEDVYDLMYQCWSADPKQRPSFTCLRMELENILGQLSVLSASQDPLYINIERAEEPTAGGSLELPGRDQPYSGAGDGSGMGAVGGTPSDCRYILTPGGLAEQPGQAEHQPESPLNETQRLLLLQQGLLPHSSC

MDA-MB-231 = assay: Antimetastatic activity against human MDA-MB-231-luc-D3H2LN cells xenografted in NCr nu/nu mouse assessed as mouse survival at 125 mg/kg, bid administered daily for 21 days measured on day 22 by bioluminescence imaging analysis; format: functional
[8] = biological target: Vascular endothelial growth factor receptor 2 (Homo sapiens, UniProt P35968); assay: Inhibition of VEGFR2 (unknown origin)
[9] = biological target: T1, Tyrosine-protein kinase receptor UFO; assay: Inhibition of human full length AXL by scintillation counting method in presence of 33P-gammaATP
[10] = biological target: T1, Tyrosine-protein kinase receptor UFO; assay: Inhibition of human full length AXL after 4 hrs followed by stimulation with human recombinant Gas6 for 15 minutes by cell based assay

Vascular endothelial growth factor receptor 2, sequence (P35968 whole entry): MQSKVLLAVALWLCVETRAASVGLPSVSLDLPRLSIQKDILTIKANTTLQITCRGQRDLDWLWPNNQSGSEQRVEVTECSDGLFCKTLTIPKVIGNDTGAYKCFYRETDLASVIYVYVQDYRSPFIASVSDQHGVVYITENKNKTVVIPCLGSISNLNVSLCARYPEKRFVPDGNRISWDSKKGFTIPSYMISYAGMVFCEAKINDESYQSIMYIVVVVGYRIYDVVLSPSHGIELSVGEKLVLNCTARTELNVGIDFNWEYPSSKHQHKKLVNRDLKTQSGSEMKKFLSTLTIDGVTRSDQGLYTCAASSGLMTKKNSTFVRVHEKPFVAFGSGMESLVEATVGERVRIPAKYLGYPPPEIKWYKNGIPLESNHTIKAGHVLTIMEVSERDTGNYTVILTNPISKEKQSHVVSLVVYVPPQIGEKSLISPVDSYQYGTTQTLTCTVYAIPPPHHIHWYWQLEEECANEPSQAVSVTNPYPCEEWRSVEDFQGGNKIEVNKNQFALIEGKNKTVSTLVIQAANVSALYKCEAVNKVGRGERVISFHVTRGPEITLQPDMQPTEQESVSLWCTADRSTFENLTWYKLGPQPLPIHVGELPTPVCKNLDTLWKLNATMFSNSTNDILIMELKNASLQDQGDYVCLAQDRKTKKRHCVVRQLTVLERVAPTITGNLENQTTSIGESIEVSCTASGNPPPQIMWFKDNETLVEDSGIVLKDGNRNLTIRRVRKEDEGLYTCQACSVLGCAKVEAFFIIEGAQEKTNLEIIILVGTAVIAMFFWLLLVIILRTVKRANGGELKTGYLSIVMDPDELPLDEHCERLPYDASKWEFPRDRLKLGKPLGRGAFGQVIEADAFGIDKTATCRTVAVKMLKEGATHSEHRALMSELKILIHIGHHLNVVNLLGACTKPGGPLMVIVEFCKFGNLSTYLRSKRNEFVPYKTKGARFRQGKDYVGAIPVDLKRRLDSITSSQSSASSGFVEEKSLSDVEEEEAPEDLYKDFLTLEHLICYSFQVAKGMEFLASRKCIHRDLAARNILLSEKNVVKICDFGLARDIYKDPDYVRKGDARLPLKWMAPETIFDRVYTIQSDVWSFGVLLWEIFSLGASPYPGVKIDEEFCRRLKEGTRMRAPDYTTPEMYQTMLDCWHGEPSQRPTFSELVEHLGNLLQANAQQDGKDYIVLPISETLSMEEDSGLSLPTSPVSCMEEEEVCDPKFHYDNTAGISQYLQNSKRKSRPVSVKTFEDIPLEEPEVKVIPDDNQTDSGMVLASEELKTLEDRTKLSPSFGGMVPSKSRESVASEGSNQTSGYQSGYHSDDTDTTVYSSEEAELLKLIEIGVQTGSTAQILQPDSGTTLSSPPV
Hepatocyte growth factor receptor, sequence (P08581 whole entry): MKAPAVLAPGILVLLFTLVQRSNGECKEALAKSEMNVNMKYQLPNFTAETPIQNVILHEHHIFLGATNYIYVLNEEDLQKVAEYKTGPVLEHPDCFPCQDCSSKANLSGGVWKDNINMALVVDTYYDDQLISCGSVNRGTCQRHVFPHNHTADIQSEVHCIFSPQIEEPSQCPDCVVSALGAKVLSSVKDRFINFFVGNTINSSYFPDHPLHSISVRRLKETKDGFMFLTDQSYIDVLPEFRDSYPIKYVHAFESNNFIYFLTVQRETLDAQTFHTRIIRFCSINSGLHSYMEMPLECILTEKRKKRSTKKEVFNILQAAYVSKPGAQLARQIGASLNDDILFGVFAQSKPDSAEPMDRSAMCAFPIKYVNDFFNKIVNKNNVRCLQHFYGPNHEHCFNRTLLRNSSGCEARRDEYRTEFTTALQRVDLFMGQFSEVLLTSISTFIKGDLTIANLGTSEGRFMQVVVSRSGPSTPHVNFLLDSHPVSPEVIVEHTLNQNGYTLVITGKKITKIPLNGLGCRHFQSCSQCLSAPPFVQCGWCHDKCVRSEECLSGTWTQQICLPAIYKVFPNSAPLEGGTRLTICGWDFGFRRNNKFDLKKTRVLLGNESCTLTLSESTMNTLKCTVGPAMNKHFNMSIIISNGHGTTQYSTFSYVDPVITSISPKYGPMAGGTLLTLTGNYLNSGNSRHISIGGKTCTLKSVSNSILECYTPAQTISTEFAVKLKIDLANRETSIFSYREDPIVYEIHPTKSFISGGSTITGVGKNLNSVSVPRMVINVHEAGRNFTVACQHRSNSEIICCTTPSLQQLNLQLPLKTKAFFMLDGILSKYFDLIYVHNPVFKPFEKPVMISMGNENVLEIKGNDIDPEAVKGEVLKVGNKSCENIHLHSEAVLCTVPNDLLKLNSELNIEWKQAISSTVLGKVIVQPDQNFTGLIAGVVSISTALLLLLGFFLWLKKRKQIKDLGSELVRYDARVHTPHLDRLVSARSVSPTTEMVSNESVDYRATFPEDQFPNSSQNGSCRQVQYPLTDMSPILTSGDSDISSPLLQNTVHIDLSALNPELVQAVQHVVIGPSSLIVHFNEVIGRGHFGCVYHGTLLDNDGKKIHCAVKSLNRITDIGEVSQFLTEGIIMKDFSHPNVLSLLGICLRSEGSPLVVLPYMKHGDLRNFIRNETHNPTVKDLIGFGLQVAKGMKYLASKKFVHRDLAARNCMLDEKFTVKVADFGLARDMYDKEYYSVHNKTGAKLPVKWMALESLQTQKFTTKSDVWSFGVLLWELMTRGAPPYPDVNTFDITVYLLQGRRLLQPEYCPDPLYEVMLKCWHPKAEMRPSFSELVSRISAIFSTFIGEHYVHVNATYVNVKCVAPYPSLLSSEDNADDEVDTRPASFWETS
Tyrosine-protein kinase ABL1, sequence (P00519 whole entry): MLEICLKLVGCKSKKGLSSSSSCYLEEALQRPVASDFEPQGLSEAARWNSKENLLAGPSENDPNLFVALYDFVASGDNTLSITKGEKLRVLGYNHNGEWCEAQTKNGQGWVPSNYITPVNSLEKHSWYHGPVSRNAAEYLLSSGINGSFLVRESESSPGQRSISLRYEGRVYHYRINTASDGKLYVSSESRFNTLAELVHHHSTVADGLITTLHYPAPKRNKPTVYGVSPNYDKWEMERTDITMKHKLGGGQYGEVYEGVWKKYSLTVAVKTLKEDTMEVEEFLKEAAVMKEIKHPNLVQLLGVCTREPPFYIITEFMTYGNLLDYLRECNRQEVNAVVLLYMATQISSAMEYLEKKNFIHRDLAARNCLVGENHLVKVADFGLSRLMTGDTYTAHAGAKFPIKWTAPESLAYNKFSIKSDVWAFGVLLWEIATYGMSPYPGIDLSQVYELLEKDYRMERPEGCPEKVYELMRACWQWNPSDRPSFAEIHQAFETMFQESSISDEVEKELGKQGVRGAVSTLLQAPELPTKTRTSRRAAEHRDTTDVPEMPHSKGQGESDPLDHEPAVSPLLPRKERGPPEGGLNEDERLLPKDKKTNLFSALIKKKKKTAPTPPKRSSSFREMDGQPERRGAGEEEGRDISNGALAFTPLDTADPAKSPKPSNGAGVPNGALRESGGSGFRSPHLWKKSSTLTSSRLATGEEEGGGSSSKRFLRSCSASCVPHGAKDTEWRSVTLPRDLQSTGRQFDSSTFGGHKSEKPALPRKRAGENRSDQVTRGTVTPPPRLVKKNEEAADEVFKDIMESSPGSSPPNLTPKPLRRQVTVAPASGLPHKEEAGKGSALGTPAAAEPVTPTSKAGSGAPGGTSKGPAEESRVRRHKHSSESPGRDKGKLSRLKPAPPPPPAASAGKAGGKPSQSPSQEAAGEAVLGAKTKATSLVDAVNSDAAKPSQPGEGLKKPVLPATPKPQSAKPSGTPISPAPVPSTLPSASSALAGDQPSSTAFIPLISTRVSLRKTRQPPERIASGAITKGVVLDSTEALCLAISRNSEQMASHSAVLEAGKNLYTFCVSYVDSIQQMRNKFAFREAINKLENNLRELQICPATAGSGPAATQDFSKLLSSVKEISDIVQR

IC50 [1]: < 1000 nM | IC50 [2]: 58 nM
SMILES: Cc1c[nH]c2nc(Nc3ccc(N4CCN(C)CC4)c(F)c3)nc(-c3cccc(CC#N)c3)c12

IC50 [1]: < 500 nM | IC50 [3]: 10 nM | IC50 [4]: 48 nM
SMILES: Cc1c(C(=O)Nc2ccc(Oc3ccnc4[nH]cc(-c5ccccc5)c34)c(F)c2)c(=O)n(-c2ccc(F)cc2)n1C

IC50 [5]: < 1000 nM
SMILES: S=C(NCc1ccc2c(c1)OCO2)N1CCN(c2ncnc3c2oc2ccccc23)CC1 [AMUVATINIB]

SMILES: Nc1nc(Nc2ccc3c(c2)CC[C@@H](N2CCCC2)CC3)nn1-c1cc2c(nn1)-c1ccccc1CCC2 [BEMCENTINIB]
IC50 [6]: > 700 nM | IC50 [7]: > 700 nM | survival at 125 mg/kg (MDA-MB-231): > 35%

IC50 [8]: 1 nM
SMILES: COCCNCc1ccc(-c2cc3nccc(Oc4ccc(NC(=S)NC(=O)Cc5ccc(F)cc5)cc4F)c3s2)nc1 [GLESATINIB]

SMILES: Cc1ccc(C(=O)Nc2ccc(Oc3cc4cnn(C)c4cc3-c3cn[nH]c3)c(F)c2)c(=O)n1-c1ccc(F)cc1 [MERESTINIB]
IC50 [9]: 11 nM | IC50 [10]: 2 nM
